# “And” between values parts separate entries of the source, which are not always exact repeats. Equal entries are not always repeated. Where two headings read alike, the source gives them in different places.
# What was measured:
# CgBdf1 BD1 = CgBdf1 BD1 (Candida glabrata, UniProt Q6FWV7); assay: HTRF assay, inhibition of H4ac4 peptide binding; parameters: species or system C. glabrata; settings: for %HTRF Signal Cg Bdf1 BD1: 240 min
# [1] = tested on: C. glabrata strains (WT, pdr1∆ or PDR1 rescue); assay: Growth assays to assess compound efflux; format: cell-based; settings: for growth relative to Solvent = 100 (Figure S10B): compound 50 µM, three replicates
# Protocol: Cells from a single colony were diluted in 0.85% NaCl before being counted using a Neubauer chamber. […] The effect of fluconazole was tested by titration on these strains under similar conditions.
# [2] = molecular target: T1, Bdf1‐SmBiT/H2A.Z‐LgBiT pair (Saccharomyces cerevisiae, UniProt P35817); assay: NanoBiT assay; format: cell-based, S. cerevisiae; parameters: remaining activity: dose or concentration left out as unconfirmed
# T1 construct: expressed in transfected cells; host or cells: S. cerevisiae (H2A.Z-LgBiT strain)
# Protocol: (§1) Yeast strains were distributed in 96‐well microplates containing SC(MSG)‐U medium (SC‐U medium with 0.1% monosodium glutamate instead of ammonium sulfate as a nitrogen source) and grown at 30 °C. 40 µL of exponentially growing cells were transferred in white 96‐well half‐area microplates (ProxiPlate Plus, Greiner Bio‐One) previously filled with 40 µL per well of SC(MSG) containing 100 µM furimazine. The microplates were then incubated for 10 min in the dark before the luminescence signals were recorded using a microplate reader (Ensight, PerkinElmer). Luminescence measurements were performed for 1 s per well at a distance of 0.1 mm between the plate and the detector. The luminescence values were normalized with the optical density (OD600) of the corresponding cultures. For NanoBiT assays with BET inhibitors, yeast cultures were grown overnight at 30 °C in SC(MSG) medium in the presence of serial dilutions of 24c and I‐BET726. Overnight cultures were diluted 5 fold in SC(MSG) and incubated for 1 h before luminescence was recorded as previously indicated. Luminescence values for each condition were normalized using the average of the luminescence recorded for the Bdf1/Swc4 and Bmh1/Bmh2 controls.
# Bmh1/Bmh2 = assay: NanoBiT assay, control pair; format: cell-based, S. cerevisiae; parameters: Normalized nanoBiT signal: unit of the concentration uncertain; settings: for Normalized nanoBiT signal: Bmh1-LgBiT, Bmh2-SmBiT, Fig 4C
# Protocol: as §1
# HeLa cells = settings: highest concentration tested (300 µM); 24 h
# Protocol: (§2) Cytotoxicity assays were performed as described^[ [1] ^] with minor changes. Proliferation of human cells was assessed using an MTT colorimetric assay (Cell Proliferation Kit I, Roche). HeLa (epithelial cells, ATCC number CCL‐2) and IMR90 (primary fibroblasts cells, ATCC number CCL‐186) cells were cultured in humidified atmosphere (37 °C and 5% CO2) in DMEM medium containing 10% heat inactivated fetal calf serum and 2 mM glutamine. […] Plates were incubated at 37 °C and 5% CO2 for 24 h before adding 10 mL of MTT labelling reagent (final concentration 0.5 mg mL^−1) to each well. After incubating for a further 4 h, 100 µL of the solubilization solution were added in each well. Plates were allowed to stand overnight in the incubator before measuring the absorbance at 570 nm and at 690 nm in a ClarioStar plate reader. The values of A570–A690 nm were normalized relative to that obtained with vehicle (0.2% DMSO, 0.8% ethanol) and plotted against compound concentration.
# [3] = tested on: IMR90 (primary fibroblast) cells; settings: highest concentration tested (300 µM); 24 h
# Protocol: as §2
# [4] = tested on: C. glabrata strains expressing WT and mutant Bdf1; assay: Growth inhibition in liquid media, C. glabrata lab strains; settings: for pEC50 growth inhibition: Fig 2C; for % Growth (OD at 600 nm): Fig 2F
# Protocol: Growth on Liquid Media with C. glabrata Lab Strains: Cells were grown at 30 °C in SC+M+C‐U medium (SC medium with 5 mM methionine, 0.25 mM cysteine, without uracil) to an OD600 of 0.5–0.8. […] Plates were incubated at 30 °C and OD600 was measured using a Multiskan FC Microplate Photometer (Thermo Fisher).
# CgBdf1 BD1, sequence (Q6FWV7 entry or part of it): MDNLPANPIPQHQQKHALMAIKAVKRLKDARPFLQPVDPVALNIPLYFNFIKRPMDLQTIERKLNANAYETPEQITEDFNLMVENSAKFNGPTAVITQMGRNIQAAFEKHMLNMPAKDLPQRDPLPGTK
# T1 sequence (P35817 whole entry): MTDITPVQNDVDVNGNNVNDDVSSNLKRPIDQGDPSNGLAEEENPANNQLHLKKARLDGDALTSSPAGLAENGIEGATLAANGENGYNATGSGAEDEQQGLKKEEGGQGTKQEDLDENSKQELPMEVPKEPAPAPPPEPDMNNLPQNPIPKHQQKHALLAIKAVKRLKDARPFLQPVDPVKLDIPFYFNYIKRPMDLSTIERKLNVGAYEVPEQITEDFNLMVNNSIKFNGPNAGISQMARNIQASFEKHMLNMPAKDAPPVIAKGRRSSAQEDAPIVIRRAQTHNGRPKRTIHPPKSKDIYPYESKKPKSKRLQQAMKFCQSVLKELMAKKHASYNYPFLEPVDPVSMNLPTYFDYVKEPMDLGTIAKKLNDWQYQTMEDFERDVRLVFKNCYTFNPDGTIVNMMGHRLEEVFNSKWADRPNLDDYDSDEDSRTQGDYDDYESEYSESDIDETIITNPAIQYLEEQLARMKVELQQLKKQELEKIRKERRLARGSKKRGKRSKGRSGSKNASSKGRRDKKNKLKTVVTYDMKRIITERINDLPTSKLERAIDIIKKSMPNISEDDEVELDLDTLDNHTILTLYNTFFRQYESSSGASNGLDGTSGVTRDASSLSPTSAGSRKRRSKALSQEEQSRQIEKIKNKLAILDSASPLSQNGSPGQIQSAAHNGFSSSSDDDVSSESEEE
structure (smiles),measurement,setting,value
"Cc1ccc(-c2nnc(C)c(NCc3ccc(C)o3)n2)cc1 [Compound 24c, 6‐methyl‐N‐((5‐methylfuran‐2‐yl)methyl)‐3‐(p‐tolyl)‐1,2,4‐triazin‐5‐amine]",activity at 0.002 µM,"CgBdf1 BD1; 4 h, Fig 2E, 0.002 microM, read-out: %HTRF Signal Cg Bdf1 BD1",102%
same,activity at 0.005 µM,"CgBdf1 BD1; 4 h, Fig 2E, 0.005 microM, read-out: %HTRF Signal Cg Bdf1 BD1",97.9%
same,activity at 0.013 µM,"CgBdf1 BD1; 4 h, Fig 2E, 0.013 microM, read-out: %HTRF Signal Cg Bdf1 BD1",101%
same,activity at 0.033 µM,"CgBdf1 BD1; 4 h, Fig 2E, 0.033 microM, read-out: %HTRF Signal Cg Bdf1 BD1",96.4%
same,activity at 0.082 µM,"CgBdf1 BD1; 4 h, Fig 2E, 0.082 microM, read-out: %HTRF Signal Cg Bdf1 BD1",98%
same,activity at 0.205 µM,"CgBdf1 BD1; 4 h, Fig 2E, 0.205 microM, read-out: %HTRF Signal Cg Bdf1 BD1",97.5%
same,activity at 0.512 µM,"CgBdf1 BD1; 4 h, Fig 2E, 0.512 microM, read-out: %HTRF Signal Cg Bdf1 BD1",94.4%
same,activity at 1.28 µM,"CgBdf1 BD1; 4 h, Fig 2E, 1.280 microM, read-out: %HTRF Signal Cg Bdf1 BD1",88.7%
same,activity at 3.2 µM,"CgBdf1 BD1; 4 h, Fig 2E, 3.200 microM, read-out: %HTRF Signal Cg Bdf1 BD1",75%
same,activity at 8 µM,"CgBdf1 BD1; 4 h, Fig 2E, 8.000 microM, read-out: %HTRF Signal Cg Bdf1 BD1",48.9%
same,activity at 20 µM,"CgBdf1 BD1; 4 h, Fig 2E, 20.000 microM, read-out: %HTRF Signal Cg Bdf1 BD1",25.2%
same,IC50,"CgBdf1 BD1; Fig 2C original data, analogs of 24, single experiments Exp1-3, read-out: pIC50 CgBD1 (converted)",8.28 µM and 7.31 µM and 9.27 µM
same,%HTRF Signal Cg Bdf1 BD1,"CgBdf1 BD1; Fig 2E, 0.002 microM",102.33% and 103.65%
same,%HTRF Signal Cg Bdf1 BD1,"CgBdf1 BD1; Fig 2E, 0.005 microM",104.91% and 102.28%
same,%HTRF Signal Cg Bdf1 BD1,"CgBdf1 BD1; Fig 2E, 0.013 microM",100.44% and 101.24%
same,%HTRF Signal Cg Bdf1 BD1,"CgBdf1 BD1; Fig 2E, 0.033 microM",102.26% and 102.17%
same,%HTRF Signal Cg Bdf1 BD1,"CgBdf1 BD1; Fig 2E, 0.082 microM",100.01% and 99.64%
same,%HTRF Signal Cg Bdf1 BD1,"CgBdf1 BD1; Fig 2E, 0.205 microM",100.01% and 98.57%
same,%HTRF Signal Cg Bdf1 BD1,"CgBdf1 BD1; Fig 2E, 0.512 microM",94.98% and 94.31%
same,%HTRF Signal Cg Bdf1 BD1,"CgBdf1 BD1; Fig 2E, 1.280 microM, 1.28 µM",89.76% and 89.41%
same,%HTRF Signal Cg Bdf1 BD1,"CgBdf1 BD1; Fig 2E, 3.200 microM, 3.2 µM",77.27% and 82.10%
same,%HTRF Signal Cg Bdf1 BD1,"CgBdf1 BD1; Fig 2E, 8.000 microM",45.31% and 53.86%
same,%HTRF Signal Cg Bdf1 BD1,"CgBdf1 BD1; Fig 2E, 20.000 microM",17.43% and 18.98%
same,IC50,"CgBdf1 BD1; Fig 2E, mean and s.d., three independent experiments, read-out: IC50 (μM) CgBD1",8.28 µM and 8 µM
same,fold drop in CgBD1 inhibition,"CgBdf1 BD1; relative to 24, thiophenyl replaced by furyl or methylfuryl",4 fold
same,activity against PDR1 deletion strain versus WT/rescue,"[1]; 50 µM (I-BET726 1 µM), 20 h",unaffected
same,growth relative to Solvent = 100 (Figure S10B),[1]; PDR1 Rescue,76.2272 and 100 and 72.1057
same,growth relative to Solvent = 100 (Figure S10B),[1]; WT,69.2689 and 72.9849 and 92.6631
same,growth relative to Solvent = 100 (Figure S10B),[1]; pdr1∆,52.2261 and 60.5623 and 93.6717
same,remaining activity at 195.3 µM,"[2]; Bdf1-SmBiT, Htz1-LgBiT, 0.1953 mM, Fig 4C, read-out: Normalized nanoBiT signal",99%
same,remaining activity at 390.6 µM,"[2]; Bdf1-SmBiT, Htz1-LgBiT, 0.3906 mM, Fig 4C, read-out: Normalized nanoBiT signal",98%
same,remaining activity at 781.3 µM,"[2]; Bdf1-SmBiT, Htz1-LgBiT, 0.7813 mM, Fig 4C, read-out: Normalized nanoBiT signal",99%
same,remaining activity at 3125 µM,"[2]; Bdf1-SmBiT, Htz1-LgBiT, 3.1250 mM, Fig 4C, read-out: Normalized nanoBiT signal",98%
same,remaining activity,"[2]; Bdf1-SmBiT, Htz1-LgBiT, […], Fig 4C, read-out: Normalized nanoBiT signal",85%
same,IC50,"[2]; mean and s.d., 4 independent experiments, read-out: IC50 (μM) (ScBdf1 / H2A.Z) NanoBiT signal",65 µM
same,Normalized nanoBiT signal,Bmh1/Bmh2; 0.1953 (unit uncertain),107% and 92% and 96% and 99%
same,Normalized nanoBiT signal,Bmh1/Bmh2; 0.3906 (unit uncertain),88% and 99% and 103%
same,Normalized nanoBiT signal,Bmh1/Bmh2; 0.7813 (unit uncertain),86% and 104% and 98% and 103%
same,Normalized nanoBiT signal,Bmh1/Bmh2; 1.5625 (unit uncertain),100% and 97% and 101%
same,Normalized nanoBiT signal,Bmh1/Bmh2; 3.1250 (unit uncertain),93% and 97% (2×) and 103%
same,Normalized nanoBiT signal,Bmh1/Bmh2; 50.0000 (unit uncertain),79% and 98% and 101% and 93%
same,Normalized nanoBiT signal,Bmh1/Bmh2; 100.0000 (unit uncertain),95% and 97% and 100% and 88%
same,"inhibition of NanoBiT signal, Bmh1/Bmh2",Bmh1/Bmh2; unrelated control pair,not observed
same,cytotoxicity toward HeLa cells (MTT),HeLa cells,modest cytotoxicity
same,cytotoxicity toward IMR90 cells (MTT),[3],modest cytotoxicity
same,pEC50 growth inhibition,"[4]; strain BD1 Y-F, single experiments Exp1-3",4.034 and 3.821
same,pEC50 growth inhibition,"[4]; strain BD2 Y-F, single experiments Exp1-3",4.481 and 4.395
same,pEC50 (WT BDF1),"[4]; Fig 2D, WT C. glabrata, single experiments Exp1-3",4.014 and 4.016
same,% Growth (OD at 600 nm),"[4]; WT BDF1, 6.25 microM",98% and 99% and 101%
same,% Growth (OD at 600 nm),"[4]; WT BDF1, 12.5 microM",95% and 97% and 99%
same,% Growth (OD at 600 nm),"[4]; WT BDF1, 25 microM",88% and 91% and 95%
same,% Growth (OD at 600 nm),"[4]; WT BDF1, 50 microM",65% and 71% and 69%
same,% Growth (OD at 600 nm),"[4]; WT BDF1, 100 microM",44% and 45% and 46%
same,% Growth (OD at 600 nm),"[4]; bdf1-bd1Y166F, 6.25 microM",99% and 101% and 98%
same,% Growth (OD at 600 nm),"[4]; bdf1-bd1Y166F, 12.5 microM",102% and 92% and 98%
same,% Growth (OD at 600 nm),"[4]; bdf1-bd1Y166F, 25 microM",92% and 82% and 97%
same,% Growth (OD at 600 nm),"[4]; bdf1-bd1Y166F, 50 microM",88% and 74% and 81%
same,% Growth (OD at 600 nm),"[4]; bdf1-bd1Y166F, 100 microM",50% and 44% and 56%
same,% Growth (OD at 600 nm),"[4]; bdf1-bd1Δ, 6.25 microM",98% and 99% and 93%
same,% Growth (OD at 600 nm),"[4]; bdf1-bd1Δ, 12.5 microM",93% and 98% and 97%
same,% Growth (OD at 600 nm),"[4]; bdf1-bd1Δ, 25 microM",88% and 86% and 96%
same,% Growth (OD at 600 nm),"[4]; bdf1-bd1Δ, 50 microM",78% and 74% and 87%
same,% Growth (OD at 600 nm),"[4]; bdf1-bd1Δ, 100 microM",50% and 43% and 61%
same,% Growth (OD at 600 nm),"[4]; bdf1-bd2Y343F, 6.25 microM",89% and 90% and 88%
same,% Growth (OD at 600 nm),"[4]; bdf1-bd2Y343F, 12.5 microM",80% and 76% and 84%
same,% Growth (OD at 600 nm),"[4]; bdf1-bd2Y343F, 25 microM",68% and 61% and 66%
same,% Growth (OD at 600 nm),"[4]; bdf1-bd2Y343F, 50 microM",40% and 46%
same,% Growth (OD at 600 nm),"[4]; bdf1-bd2Y343F, 100 microM",20% and 22%
same,% Growth (OD at 600 nm),"[4]; bdf1-bd2Δ, 6.25 microM",68% and 85%
same,% Growth (OD at 600 nm),"[4]; bdf1-bd2Δ, 12.5 microM",64% and 70% and 59%
same,% Growth (OD at 600 nm),"[4]; bdf1-bd2Δ, 25 microM",40% and 63% and 41%
same,% Growth (OD at 600 nm),"[4]; bdf1-bd2Δ, 50 microM",30% and 38% and 23%
same,%Growth,"[4]; Fig 3D, 50 µM, WT BDF1-flag, Exp 1-3",54.5% and 57.2% and 54.2%
same,EC50,"[4]; Nakaseomyces glabratus, read-out: EC50 (μM) growth inhibition, strain WT BDF1 (both BDs active)",90 µM
same,EC50,"[4]; Nakaseomyces glabratus, read-out: EC50 (μM) growth inhibition, strain bdf1-Y166F (active BD: BD2)",~100 µM
same,EC50,"[4]; Nakaseomyces glabratus, read-out: EC50 (μM) growth inhibition, strain bdf1-Y343F (active BD: BD1)",36.6 ± 33 µM
same,EC50,"[4]; Nakaseomyces glabratus, read-out: EC50 (μM) growth inhibition, strain bdf1-bd1Δ (active BD: BD2)",~100 µM
same,EC50,"[4]; Nakaseomyces glabratus, read-out: EC50 (μM) growth inhibition, strain bdf1-bd2Δ (active BD: BD1)",22.7 ± 7.9 µM
same,EC50,"[4]; Nakaseomyces glabratus, read-out: pEC50 (WT BDF1), Fig 2D (converted), WT C. glabrata, single experiments Exp1-3",86.5 µM
same,EC50,"[4]; Nakaseomyces glabratus, read-out: pEC50 growth inhibition, Fig 2C (converted), strain BD1 Y-F, single experiments Exp1-3",107 µM
same,EC50,"[4]; Nakaseomyces glabratus, read-out: pEC50 growth inhibition, Fig 2C (converted), strain BD2 Y-F, single experiments Exp1-3",36.4 µM
same,EC50,"[4]; read-out: EC50 (μM) growth inhibition, strain WT BDF1 (both BDs active)",93 µM

# — PMC11904993, “Humanized Candida and NanoBiT Assays Expedite Discovery of Bdf1 Bromodomain Inhibitors With Antifungal Potential” (Advanced Science, 2025)
